What was measured:
Format in all cases: cell-based, human
PC-3 cells = experiment: WST-1 cell proliferation assay, PC-3; details: for IC50: Homo sapiens, PC-3, 72 h, WST-1, three days of exposure, mean ± SD, n = 3; for IC50 (Silibinin)/IC50(Derivative) PC-3: fold potency relative to silibinin
Procedure: (§1) The in vitro antiproliferative activities of six 7-O-substituted and 26 3-O-substituted silybin derivatives were evaluated using the WST-1 cell proliferation assay, according to the procedure as described in the Experimental Section in both androgen-sensitive (LNCaP) and androgen-insensitive (PC-3 and DU145) human prostate cancer cell lines. Silibinin and docetaxel were used as a positive control for comparison in the parallel experiments and the IC50 values calculated from the dose-response curves are summarized in Table 1. […] A three-carbon linker in 11 and 29, as well as a five-carbon linker in 31, 37 and 40, are beneficial to the potency.
(§2) All cell lines were initially purchased from American Type Culture Collection (ATCC^TM) (Manassas, VA, USA). The PC-3 and LNCaP prostate cancer cell lines were routinely cultured in RPIM-1640 medium supplemented with 10% FBS and 1% penicillin/streptomycin. The DU145 prostate cancer cells were routinely cultured in Eagle’s Minimum Essential Medium (EMEM) supplemented with 10% FBS and 1% penicillin/streptomycin. Cultures were maintained in a high humidity environment supplemented with 5% carbon dioxide at a temperature of 37 °C.
(§3) PC-3, DU145, or LNCaP cells were plated in 96-well plates at a density of 3,200 per well in 200 µL of culture medium. The cells were then separately treated with silibinin, or synthesized silibinin derivatives, at five different doses for three days, while equal treatment volumes of DMSO (0.25%) were used as the vehicle control. The cells were cultured in a CO2 incubator at 37 °C for three days. A total of 10 µL of the premixed WST-1 cell proliferation reagent (Clontech) was added to each well. After mixing gently for one min on an orbital shaker, the cells were incubated for an additional 3 h at 37 °C. To ensure a homogeneous distribution of color, it is important to mix gently on an orbital shaker for one min. The absorbance of each well was measured using a microplate reader (Synergy HT, BioTek, Winooski, VT, USA) at a wavelength of 430 nm. […] For calculating the IC50 values, a linear proliferative inhibition was made based on at least five dosages for each compound.

DU145 cells = experiment: WST-1 cell proliferation assay, DU145; details: for IC50: Homo sapiens, DU-145, 72 h, WST-1, three days of exposure, mean ± SD, n = 3; for IC50 (Silibinin)/IC50(Derivative) DU145: fold potency relative to silibinin
Procedure: as §1, §2, §3

LNCaP cells = experiment: WST-1 cell proliferation assay, LNCaP; details: for IC50: Homo sapiens, LNCaP, 72 h, WST-1, three days of exposure, mean ± SD, n = 3; for IC50 (Silibinin)/IC50(Derivative) LNCaP: fold potency relative to silibinin
Procedure: as §1, §2, §3

Row | Compound | IC50 (PC-3 cells) [µM] | IC50 (Silibinin)/IC50(Derivative) PC-3 (PC-3 cells) | IC50 (DU145 cells) [µM] | IC50 (Silibinin)/IC50(Derivative) DU145 (DU145 cells) | IC50 (LNCaP cells) [µM] | IC50 (Silibinin)/IC50(Derivative) LNCaP (LNCaP cells)
1 | CCN(CC)CCCOc1cc(OC)c2c(=O)c(OC)c(-c3ccc4c(c3)OC(c3ccc(OC)c(OC)c3)C(CO)O4)oc2c1 (stereo not drawn) [Compound 10] | 9.92 ± 0.43 | 7 | 8.62 ± 0.32 | 11 | 7.49 ± 0.16 | 6
2 | COc1ccc(C2Oc3cc(-c4oc5cc(OCCCN6CCCC6)cc(OC)c5c(=O)c4OC)ccc3OC2CO)cc1OC (stereo not drawn) [Compound 12] | 25.1 ± 1 | 3 | 19.6 ± 0.47 | 5 | 11 ± 0.99 | 4
3 | COc1ccc(C2Oc3cc(-c4oc5cc(OCCCN6CCOCC6)cc(OC)c5c(=O)c4OC)ccc3OC2CO)cc1OC (stereo not drawn) [Compound 13] | 26.5 ± 1 | 3 | 45.1 ± 11.5 | 2 | 12.7 ± 6.28 | 3
4 | COc1ccc(C2Oc3cc(-c4oc5cc(OCCCN6CCN(C)CC6)cc(OC)c5c(=O)c4OC)ccc3OC2CO)cc1OC (stereo not drawn) [Compound 14] | 25.7 ± 3.39 | 3 | 19.4 ± 0.88 | 5 | 16.4 ± 3.47 | 3
5 | COc1cc(OC)c2c(=O)c(OCCCCCBr)c(-c3ccc4c(c3)OC(c3ccc(OC)c(OC)c3)C(CO)O4)oc2c1 (stereo not drawn) [Compound 19] | 5.76 ± 1.36 | 13 | 8.13 ± 0.42 | 11 | 5.19 ± 2.08 | 8
6 | COc1cc(OC)c2c(=O)c(OCCCN(C)C)c(-c3ccc4c(c3)OC(c3ccc(OC)c(OC)c3)C(CO)O4)oc2c1 (stereo not drawn) [Compound 20, 3-O-(N,N-Dimethylamino)propyl-5,7,20-O-trimethyl-2,3-dehydrosilybin] | 9.09 ± 1.48 | 8 | 32.7 ± 5.32 | 3 | 20.7 ± 5.34 | 2
7 | COc1cc(OC)c2c(=O)c(OCCCCN(C)C)c(-c3ccc4c(c3)OC(c3ccc(OC)c(OC)c3)C(CO)O4)oc2c1 (stereo not drawn) [Compound 21] | 5.15 ± 2.13 | 14 | 9.97 ± 3.34 | 9 | 5.13 ± 0.89 | 9
8 | COc1cc(OC)c2c(=O)c(OCCCCCN(C)C)c(-c3ccc4c(c3)OC(c3ccc(OC)c(OC)c3)C(CO)O4)oc2c1 (stereo not drawn) [Compound 22] | 3.47 ± 2.23 | 21 | 6.73 ± 0.45 | 14 | 5.07 ± 0.52 | 9
9 | CCN(CC)CCCOc1c(-c2ccc3c(c2)OC(c2ccc(OC)c(OC)c2)C(CO)O3)oc2cc(OC)cc(OC)c2c1=O (stereo not drawn) [Compound 23] | 5.16 ± 0.94 | 14 | 9.21 ± 0.37 | 10 | 3.09 ± 0.15 | 14
10 | CCN(CC)CCCCOc1c(-c2ccc3c(c2)OC(c2ccc(OC)c(OC)c2)C(CO)O3)oc2cc(OC)cc(OC)c2c1=O (stereo not drawn) [Compound 24] | 5.76 ± 1.36 | 11 | 8.18 ± 0.42 | 8 | 5.19 ± 2.08 | 13
11 | CCN(CC)CCCCCOc1c(-c2ccc3c(c2)OC(c2ccc(OC)c(OC)c2)C(CO)O3)oc2cc(OC)cc(OC)c2c1=O (stereo not drawn) [Compound 25] | 6.41 ± 0.4 | 11 | 6.64 ± 0.54 | 14 | 6.33 ± 0.34 | 7
12 | CCCN(CCC)CCCOc1c(-c2ccc3c(c2)OC(c2ccc(OC)c(OC)c2)C(CO)O3)oc2cc(OC)cc(OC)c2c1=O (stereo not drawn) [Compound 26] | 2.03 ± 0.69 | 36 | 8.39 ± 1.38 | 11 | 3.89 ± 0.54 | 11

Reference: PMC6320956, “O-Aminoalkyl-O-Trimethyl-2,3-Dehydrosilybins: Synthesis and In Vitro Effects Towards Prostate Cancer Cells” (Molecules, 2018)
